What was measured:
Leishmania amazonensis = test: Antiparasitic activity against intracellular Leishmania amazonensis amastigotes infected in mouse peritoneal macrophage measured after 72 hrs; assay type: functional, organism-based
[1] = Cytotoxicity against Balb/c mouse peritoneal macrophage assessed as cell viability measured after 72 hrs by alamar blue assay; assay type: tissue-based; details: peritoneal macrophages
[2] = Selectivity index, ratio of CC50 for mouse peritoneal macrophages to IC50 for Leishmania amazonensis amastigotes infected in BALB/c mouse peritoneal macrophages; assay type: toxicity; details: read-out: Ratio CC50/IC50
[3] = Selectivity index, ratio of CC50 for mouse peritoneal macrophages to IC50 for Trypanosoma cruzi amastigotes infected in BALB/c mouse peritoneal macrophages; assay type: toxicity; details: read-out: Ratio CC50/IC50
Trypanosoma cruzi = test: Antiparasitic activity against intracellular Trypanosoma cruzi amastigotes infected in mouse peritoneal macrophage measured after 72 hrs; assay type: functional, organism-based

Row | IC50 (Leishmania amazonensis) | IC50 (Trypanosoma cruzi) | SMILES | CC50 at 72 h [1] | selectivity ratio [2] | selectivity ratio [3]
1 | > 20 µM |  | COc1cc(O)cc2c1[C@@H](/C=C/c1ccc(O)cc1)[C@@H]1[C@@H](c3ccccc3)Oc3cc(O)cc(OC)c3[C@@H]1O2 | > 20 µM |  | 
2 | 2.2 µM |  | COc1ccc(/C=C/[C@@H]2c3c(OC)cc(O)cc3O[C@H]3c4c(OC)cc(O)cc4O[C@H](c4ccccc4)[C@@H]23)cc1 | > 20 µM | 9.1 | 
3 | 6.3 µM |  | COc1cc(O)cc2c1[C@@H](/C=C/c1ccccc1)[C@@H]1[C@@H](c3ccccc3)Oc3cc(O)cc(OC)c3[C@@H]1O2 | > 20 µM | 3.2 | 
4 | 3.6 µM | 4.7 µM | COc1ccc(/C=C/[C@@H]2c3c(OC)cc(O)c(Br)c3O[C@H]3c4c(OC)cc(O)c(Br)c4O[C@H](c4ccccc4)[C@@H]23)cc1 | > 100 µM | > 28 | > 21
5 | 3.4 µM | 2.2 µM | COc1ccc(/C=C/[C@@H]2c3c(OC)cc(O)c(Cl)c3O[C@H]3c4c(OC)cc(O)c(Cl)c4O[C@H](c4ccccc4)[C@@H]23)cc1 | > 100 µM | > 29 | > 45
6 | > 10 µM | 1.9 µM | COc1cc(O)c(I)c2c1[C@@H](/C=C/c1ccccc1)[C@@H]1[C@@H](c3ccccc3)Oc3cc(O)cc(OC)c3[C@@H]1O2 | > 100 µM |  | > 53
7 | 1.7 µM | 1.6 µM | COc1cc(O)c(Br)c2c1[C@@H](/C=C/c1ccccc1)[C@@H]1[C@@H](c3ccccc3)Oc3c(Br)c(O)cc(OC)c3[C@@H]1O2 | > 100 µM | > 59 | > 63
8 | 5.4 µM | 1.6 µM | COc1ccc(/C=C/[C@@H]2c3c(OC)cc(O)cc3O[C@H]3c4c(OC)cc(O)c(I)c4O[C@H](c4ccccc4)[C@@H]23)cc1 | > 100 µM | > 19 | > 63
9 | > 10 µM | 1.4 µM | COc1ccc(/C=C/[C@@H]2c3c(OC)cc(O)c(Cl)c3O[C@H]3c4c(OC)cc(O)cc4O[C@H](c4ccccc4)[C@@H]23)cc1 | > 100 µM |  | > 71
10 | 6.5 µM | > 10 µM | COc1cc(O)c(Br)c2c1[C@@H]1Oc3c(Br)c(O)c(Br)c(OC)c3[C@@H](/C=C/c3ccc(O)cc3)[C@@H]1[C@@H](c1ccccc1)O2 | > 100 µM | > 15 | 
11 | 7.8 µM | 1.8 µM | COc1cc(O)c(I)c2c1[C@@H](/C=C/c1ccc(O)cc1)[C@@H]1[C@@H](c3ccccc3)Oc3c(I)c(O)cc(OC)c3[C@@H]1O2 | > 100 µM | > 13 | > 56
12 | 3.9 µM | 6.5 µM | COc1cc(O)c(I)c2c1[C@@H](/C=C/c1ccccc1)[C@@H]1[C@@H](c3ccccc3)Oc3c(I)c(O)cc(OC)c3[C@@H]1O2 | > 100 µM | > 26 | > 15
13 | 2.5 µM | 8.3 µM | COc1cc(O)c(Br)c2c1[C@@H](/C=C/c1ccc(O)cc1)[C@@H]1[C@@H](c3ccccc3)Oc3c(Br)c(O)cc(OC)c3[C@@H]1O2 | > 100 µM | > 40 | > 12
14 | 4.5 µM | 3.8 µM | COc1ccc(/C=C/[C@@H]2c3c(OC)c(Br)c(O)c(Br)c3O[C@H]3c4c(OC)cc(O)c(Br)c4O[C@H](c4ccccc4)[C@@H]23)cc1 | > 100 µM | > 22 | > 26
15 | 4.7 µM | 2.5 µM | COc1ccc(/C=C/[C@@H]2c3c(OC)cc(O)c(I)c3O[C@H]3c4c(OC)cc(O)c(I)c4O[C@H](c4ccccc4)[C@@H]23)cc1 | > 100 µM | > 21 | > 40
16 | 1 µM | 2.9 µM | COc1cc(O)c(Br)c2c1[C@@H]1Oc3c(Br)c(O)c(Br)c(OC)c3[C@@H](/C=C/c3ccccc3)[C@@H]1[C@@H](c1ccccc1)O2 | > 100 µM | > 100 | > 34
17 | 3.3 µM | 3.6 µM | COc1ccc(/C=C/[C@@H]2c3c(OC)cc(O)c(Br)c3O[C@H]3c4c(OC)cc(O)cc4O[C@H](c4ccccc4)[C@@H]23)cc1 | > 100 µM | > 30 | > 28
18 | 1.2 µM | 1.4 µM | COc1cc(O)c(Cl)c2c1[C@@H](/C=C/c1ccccc1)[C@@H]1[C@@H](c3ccccc3)Oc3cc(O)cc(OC)c3[C@@H]1O2 | > 100 µM | > 83 | > 71
19 | 0.2 µM |  | C[C@@H]1[C@H](O)[C@@H](C)/C=C/C=C/C=C/C=C/C=C/C=C/C=C/[C@H](O[C@@H]2O[C@H](C)[C@@H](O)[C@H](N)[C@@H]2O)C[C@@H]2O[C@](O)(C[C@@H](O)C[C@@H](O)[C@H](O)CC[C@@H](O)C[C@@H](O)CC(=O)O[C@H]1C)C[C@H](O)[C@H]2C(=O)O [AMPHOTERICIN B] | > 50 µM | > 217 | 
20 |  | 1.4 µM | O=C(Cn1ccnc1[N+](=O)[O-])NCc1ccccc1 [BENZNIDAZOLE] | > 100 µM |  | > 35

Reference: ChEMBL document CHEMBL4699490, “Production of Highly Active Antiparasitic Compounds from the Controlled Halogenation of the Arrabidaea brachypoda Crude Plant Extract” (J Nat Prod, 2020)
